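Briefly, cells in 96-well plates were exposed to five compound concentrations for 48 h, and endpoints were estimated by linear interpolation. GI50: concentration for 50% inhibition of growth.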 The source made the active and inactive calls. No stated cut-off is given here; in the data, active = GI50 up to about 1.1 µM and inactive = higher.
Assays:
Experiment in all cases: inhibition of tumour cell growth, NCI panel, 48 h
K562 = test system: K562
SK-OV-3 = test system: SK-OV-3
M14 = test system: M14
TK-10 = test system: TK-10
SNB-75 = test system: SNB-75
SW-620 = test system: SW-620
MOLT-4 = test system: MOLT-4
MDA-MB-231 = test system: MDA-MB-231
MDA-N = test system: MDA-N
NCI-H226 = test system: NCI-H226
OVCAR-5 = test system: OVCAR-5
OVCAR-8 = test system: OVCAR-8
DU-145 = test system: DU-145
CAKI-1 = test system: CAKI-1
SF-268 = test system: SF-268
NCI-H460 = test system: NCI-H460
UACC-62 = test system: UACC-62
MCF7 = test system: MCF7
NCI-H23 = test system: NCI-H23

| Structure (SMILES) | GI50 (K562) | GI50 (SK-OV-3) | GI50 (M14) | GI50 (TK-10) | GI50 (SNB-75) | GI50 (SW-620) | GI50 (MOLT-4) | GI50 (MDA-MB-231) | GI50 (MDA-N) | GI50 (NCI-H226) | GI50 (OVCAR-5) | GI50 (OVCAR-8) | GI50 (DU-145) | GI50 (CAKI-1) | GI50 (SF-268) | GI50 (NCI-H460) | GI50 (UACC-62) | GI50 (MCF7) | GI50 (NCI-H23) |
| --- | --- | --- | --- | --- | --- | --- | --- | --- | --- | --- | --- | --- | --- | --- | --- | --- | --- | --- | --- |
| N#CC12COC3(CCCCC3C1(C#N)C#N)OC2=N (stereo unspecified) | 10.6 µM (inactive) | 45.7 µM (inactive) | 10.6 µM (inactive) | 16.2 µM (inactive) | 14 µM (inactive) | 10.3 µM (inactive) | 10.9 µM (inactive) | 15.2 µM (inactive) | 12.9 µM (inactive) | 22.9 µM (inactive) | 16.6 µM (inactive) | > 10 µM (inactive) | 15.3 µM (inactive) | 3.59 µM (inactive) | 12.7 µM (inactive) | 16 µM (inactive) | 14.7 µM (inactive) | 11.7 µM (inactive) | 16.7 µM (inactive) |
| CN(CC(=O)O)c1ncc2c(n1)C=CCC2 | > 100 µM (inactive) | > 100 µM (inactive) | > 100 µM (inactive) | > 100 µM (inactive) | > 100 µM (inactive) | > 100 µM (inactive) | > 100 µM (inactive) | > 100 µM (inactive) | > 100 µM (inactive) | > 100 µM (inactive) | > 100 µM (inactive) | > 100 µM (inactive) | > 100 µM (inactive) | > 100 µM (inactive) | > 100 µM (inactive) | > 100 µM (inactive) | > 100 µM (inactive) | > 100 µM (inactive) | > 100 µM (inactive) |
| CNC(=O)CNC(=O)C(Cc1ccc(NC(=O)CCCCC(C)=O)cc1)NC(=O)C(CCC(=O)OCc1ccccc1)NC(=O)OC(C)(C)C (stereo unspecified) | > 100 µM (inactive) | > 100 µM (inactive) | > 100 µM (inactive) | > 100 µM (inactive) | > 100 µM (inactive) | > 100 µM (inactive) | > 100 µM (inactive) | > 100 µM (inactive) | > 100 µM (inactive) | > 100 µM (inactive) | > 100 µM (inactive) | > 100 µM (inactive) | > 100 µM (inactive) | > 100 µM (inactive) | > 100 µM (inactive) | > 100 µM (inactive) | > 100 µM (inactive) | > 100 µM (inactive) | > 100 µM (inactive) |
| COC1(CC[C@H](C)COC2OC(CO)C(O)C(O)C2O)O[C@H]2C[C@H]3[C@@H]4CC=C5C[C@@H](OC6OC(CO)C(O)C(OC7OC(CO)C(O)C(O)C7O)C6OC6OC(C)C(O)C(O)C6O)CC[C@]5(C)[C@H]4CC[C@]3(C)[C@H]2[C@@H]1C (stereo partly specified) | 4.88 µM (inactive) | 12.1 µM (inactive) | 2.84 µM (inactive) | 21.2 µM (inactive) | 2.55 µM (inactive) | 2.81 µM (inactive) | 3.15 µM (inactive) | 3.7 µM (inactive) | 8.81 µM (inactive) | 6.49 µM (inactive) | 6.07 µM (inactive) | 3.03 µM (inactive) | 2 µM (inactive) | 5.45 µM (inactive) | 4.89 µM (inactive) | 3.62 µM (inactive) | 3.7 µM (inactive) | 9.2 µM (inactive) | 6.52 µM (inactive) |
| CC(=O)N1NC(c2ccccc2)=NC(=O)C1c1cc(C)c(O)c(C)c1 (stereo unspecified) | > 100 µM (inactive) | 18.7 µM (inactive) | 71.9 µM (inactive) | 20.6 µM (inactive) | 19.9 µM (inactive) | 44.4 µM (inactive) | > 100 µM (inactive) | 21.7 µM (inactive) | 54.6 µM (inactive) | 23.9 µM (inactive) | 36.2 µM (inactive) | 17.6 µM (inactive) | 22.7 µM (inactive) | > 100 µM (inactive) | 16.9 µM (inactive) | 31.1 µM (inactive) | 20.3 µM (inactive) | 21.2 µM (inactive) | 24 µM (inactive) |
| COC(=O)/C=C1\C(=O)N(C(C)=O)c2ccccc21 | 5.61 µM (inactive) | 14.8 µM (inactive) | 13.2 µM (inactive) | 7.14 µM (inactive) | 12.5 µM (inactive) | 13.7 µM (inactive) | 5.78 µM (inactive) | 7.6 µM (inactive) | 7.85 µM (inactive) | 12.4 µM (inactive) | 22.1 µM (inactive) | 17.4 µM (inactive) | 9.86 µM (inactive) | 0.0671 µM (active) | 16.5 µM (inactive) | 10.5 µM (inactive) | 4.27 µM (inactive) | 3.64 µM (inactive) | 14.6 µM (inactive) |
| CCN(c1cccc(NC(=S)Nc2ccccc2N(CC)c2cc(-c3ccccc3)no2)c1)c1cc(-c2ccccc2)no1 | > 100 µM (inactive) | > 100 µM (inactive) | > 100 µM (inactive) | > 100 µM (inactive) | > 100 µM (inactive) | > 100 µM (inactive) | > 100 µM (inactive) | > 100 µM (inactive) | > 100 µM (inactive) | > 100 µM (inactive) | > 100 µM (inactive) | > 100 µM (inactive) | > 100 µM (inactive) | > 100 µM (inactive) | > 100 µM (inactive) | > 100 µM (inactive) | > 100 µM (inactive) | > 100 µM (inactive) | > 100 µM (inactive) |
| CC(C)(O)C1CC(=O)C(C)(C2C(O)CC3(C)C4CC=C5C(CCC(O)C5(C)C)C4(C)C(=O)CC23C)O1 (stereo unspecified) | > 100 µM (inactive) | > 100 µM (inactive) | > 100 µM (inactive) | > 100 µM (inactive) | 42.2 µM (inactive) | > 100 µM (inactive) | > 100 µM (inactive) | > 100 µM (inactive) | > 100 µM (inactive) | > 100 µM (inactive) | > 100 µM (inactive) | > 100 µM (inactive) | > 100 µM (inactive) | > 100 µM (inactive) | > 100 µM (inactive) | > 100 µM (inactive) | > 100 µM (inactive) | > 100 µM (inactive) | > 100 µM (inactive) |
| Cn1cnc(N)c(N=O)c1=O | > 10 µM (inactive) | > 10 µM (inactive) | > 10 µM (inactive) | > 10 µM (inactive) | > 10 µM (inactive) | > 10 µM (inactive) | > 10 µM (inactive) | > 10 µM (inactive) | > 10 µM (inactive) | > 10 µM (inactive) | > 10 µM (inactive) | > 10 µM (inactive) | > 10 µM (inactive) | > 10 µM (inactive) | > 10 µM (inactive) | > 10 µM (inactive) | > 10 µM (inactive) | > 10 µM (inactive) | > 10 µM (inactive) |
| O=[N+]([O-])c1cccc2nc3ccccc3c(NCCCCNc3c4ccccc4nc4cccc([N+](=O)[O-])c34)c12 | < 0.0216 µM (active) | 0.293 µM (active) | 0.0389 µM (active) | 0.0213 µM (active) | 0.0859 µM (active) | < 0.0122 µM (active) | < 0.0104 µM (active) | 0.0178 µM (active) | 0.0536 µM (active) | 0.144 µM (active) | 0.164 µM (active) | < 0.01 µM (active) | 0.0232 µM (active) | 0.0261 µM (active) | 0.0203 µM (active) | 0.0143 µM (active) | 0.134 µM (active) | 0.0216 µM (active) | 0.0225 µM (active) |
| Oc1nncc2[nH]c(-c3ccccc3)cc12 | 44.1 µM (inactive) | 63.7 µM (inactive) | 51.8 µM (inactive) | 39.4 µM (inactive) | 22.9 µM (inactive) | 64.4 µM (inactive) | 17 µM (inactive) | 34 µM (inactive) | 38.9 µM (inactive) | 86.1 µM (inactive) | 95.1 µM (inactive) | 78.7 µM (inactive) | 79.8 µM (inactive) | 45.8 µM (inactive) | 39.4 µM (inactive) | 45.5 µM (inactive) | 33.9 µM (inactive) | 24.4 µM (inactive) | 48.9 µM (inactive) |
| O=c1c2c3c(sc2nc2n1N=C(c1ccc(Br)cc1)CS2)CCCC3 | > 100 µM (inactive) | > 100 µM (inactive) | > 100 µM (inactive) | > 100 µM (inactive) | > 100 µM (inactive) | > 100 µM (inactive) | > 100 µM (inactive) | > 100 µM (inactive) | > 100 µM (inactive) | > 100 µM (inactive) | > 100 µM (inactive) | > 100 µM (inactive) | > 100 µM (inactive) | > 100 µM (inactive) | > 100 µM (inactive) | > 100 µM (inactive) | > 100 µM (inactive) | > 100 µM (inactive) | > 100 µM (inactive) |
| O=C1C(NS(=O)(=O)c2ccccc2)=C(n2ccnc2)C(=O)c2ccccc21 | > 100 µM (inactive) | > 100 µM (inactive) | > 100 µM (inactive) | 24.7 µM (inactive) | 4.44 µM (inactive) | > 100 µM (inactive) | > 100 µM (inactive) | > 100 µM (inactive) | > 100 µM (inactive) | > 100 µM (inactive) | > 100 µM (inactive) | > 100 µM (inactive) | > 100 µM (inactive) | > 100 µM (inactive) | > 100 µM (inactive) | > 100 µM (inactive) | > 100 µM (inactive) | > 100 µM (inactive) | > 100 µM (inactive) |
| CC(=O)NC1=C(C)C(=O)c2c(nc3n2CCC3OC(=O)c2ccccc2)C1=N (stereo unspecified) | 1.79 µM (inactive) | 3.36 µM (inactive) | 1.01 µM (active) | 3.5 µM (inactive) | 2.37 µM (inactive) | 1.63 µM (inactive) | 1.84 µM (inactive) | 2.07 µM (inactive) | 0.182 µM (active) | 4.24 µM (inactive) | 2.98 µM (inactive) | 1.04 µM (active) | 1.97 µM (inactive) | 1.84 µM (inactive) | 2.18 µM (inactive) | 1.99 µM (inactive) | 0.314 µM (active) | 0.755 µM (active) | 1.46 µM (inactive) |

From ChEMBL document CHEMBL1201862, “PubChem BioAssay data set” (2004)
